Assay results reported in article PMC8746705, “Comparison of Experimental Strategies to Study L-Type Amino Acid Transporter 1 (LAT1) Utilization by Ligands” (Molecules, 2021).

Tests used:
[1] = biological target: T1, LAT1 (Mus musculus, UniProt Q9Z127); assay: Concentration-dependent cellular uptake into BV2 cells, Eadie–Hofstee analysis, Transport Type 1 (LAT1); format: cell-based; conditions: 1–200 µM, 30 min, BV2; Eadie–Hofstee; mean ± SD, n = 3
Procedure: (§1) For the concentration-dependent cellular uptake experiments, the BV2 cells on 24-well plates were incubated with studied compounds (1–200 μM) in pre-warmed HBSS buffer (250 μL) at 37 °C for 30 min. The experiment was then carried out as described for the time-dependent uptake above and the concentration of studied compounds in the cell lysate was analyzed by the LC-MS/MS methods described above and the results were normalized to the total protein concentration. The distinct transport mechanisms were separated from the Michaelis-Menten kinetics by using Eadie–Hofstee plot.
(§2) The studied compounds (1–15) were analyzed by using Agilent 1200 Series Rapid Resolution LC System together with an Agilent 6410 Triple Quadrupole Mass Spectrometer equipped with an electrospray ionization source (Agilent Technologies, Santa Clara, CA, USA). The chromatographic separations of analytes were achieved by using a reversed-phase Zobrax SB-C18 column (50 mm × 2.1 mm, 1.8 μm; Agilent Technologies, Santa Clara, CA, USA) by eluting the samples with 0.1% formic acid in water (A) and 0.1% formic in ACN (B). Labetalol and diclofenac were used as internal standards (ISTD) for the prodrugs and parent drugs, respectively. The transitions used for the quantification at the positive ion mode and chromatographic conditions of each compound and their parent drugs are listed in Table S1. The methods of compounds 1–11 have been reported earlier, while the methods of compounds 12–15 are reported herein for the first time.

[2] = biological target: T1, LAT1; assay: Cellular uptake of L-leucine after pre-incubation of BV2 cells with the compounds; format: cell-based; conditions: 100 µM (L-glutamine 2 mM) pre-incubated 10 min or 3 h, L-leucine 1–400 µM, 5 min
Procedure: The ability of compounds 1–15 to affect the uptake of a known LAT1 substrate L-leucine was evaluated by pre-incubating the BV2 cells at 37 °C for 10 min or 3 h with uptake buffer pH 7.4 (250 μL) containing 100 µM of compounds 1–15 or thyroxin (T4), or known nuclear receptor inducible compounds, phenobarbital (constitutive androstane receptor, CAR), and dexamethasone (pregnane X receptor, PXR) as controls. […] After incubation, the reaction was stopped by adding 250 µL of ice-cold HBSS, and the cells were washed two times with ice-cold HBSS. The cells were then lysed with 500 μL of 0.1 M NaOH (60 min) and the lysate was mixed with 3.5 mL of Emulsifier safe cocktail (Ultima Gold, PerkinElmer, Waltham, MA, USA). The radioactivity in the cells was measured by liquid scintillation counting (MicroBeta^2 counter, PerkinElmer Waltham, MA, USA). The results were multiplied by the amount of un-labeled proportion of L-leucine in each sample.

[3] = test system: immortalized mouse microglia (BV2); assay: Time-dependent cellular uptake of compounds into BV2 cells (LC-MS/MS); format: cell-based
Procedure: (§3) For the time-dependent cellular uptake experiments, the BV2 cells on 24-well plates were incubated with studied compounds (100 μM) in a pre-warmed HBSS buffer (250 μL) at 37 °C for 1–60 min. Subsequently, the cells were washed three times with an ice-cold HBSS and lysed with 250 μL of NaOH (0.1 M) for 60 min. The lysates were diluted with acetonitrile (ACN) including the selected internal standard (diclofenac to all compounds) with a ratio of 1:3 and centrifuged at 10,000× g for 10 min. The samples were analyzed by the liquid chromatography-tandem mass spectrometric (LC-MS/MS) methods as described below. The concentrations of each compound in cell lysates were calculated from the standard curve that was prepared by spiking known amounts of compounds to ACN including the selected internal standard and then normalized with protein concentration. The protein concentrations on each plate were determined as a mean of three samples by Bio-Rad Protein Assay, based on the Bradford dye-binding method, using bovine serum albumin (BSA) as a standard protein and measuring the absorbance (595 nm) by multiplate reader (EnVision, Perkin Elmer, Inc., Waltham, MA, USA).
as §2

[4] = as above; format: cell-based, mouse; conditions: mouse, BV2 microglia cells, 100 µM compound, 1–60 min, mean ± SD, n = 3, read-out: T½ of cellular uptake
Procedure: as §3, §2

[5] = biological target: T1, LAT1; assay: Cis-inhibition of radiolabelled LAT1-probe substrate uptake into BV2 cells; format: cell-based; conditions: for IC50: 5 min, mean ± SD
Procedure: (§4) After removal of the culture medium, the BV2 cells were carefully washed with pre-warmed HBSS (Hank’s balanced salt solution) containing 125.0 mM choline chloride, 4.8 mM KCl, 1.2 mM MgSO4, 1.2 mM KH2PO4, 1.3 mM CaCl2, 5.6 mM glucose, and 25.0 mM HEPES (pH 7.4 adjusted with 1 M NaOH). Pre-incubation was done with 500 μL of pre-warmed HBSS at 37 °C for 10 min before adding substrates (250 μL in HBSS) for the uptake experiments.
The ability of compounds 1–15 to inhibit the uptake of a known LAT1 substrate [^14C]-L-leucine was then evaluated by incubating the cells at 37 °C for 5 min in uptake buffer pH 7.4 (250 μL) containing 0.2 µCi/mL of [^14C]-L-leucine, or 2 µCi/mL of [^3H]-L-methionine, [^3H]-L-tryptophan or [^3H]-L-kynurenine (PerkinElmer, Waltham, MA, USA) and 0.1–1000 μM of the studied compound (or HBSS as blank). After incubation, the uptake was stopped by adding 250 µL of ice-cold HBSS, and the cells were washed two times with ice-cold HBSS. The cells were then lysed with 500 μL of NaOH (0.1 M) for 60 min and the lysate was mixed with 3.5 mL of Emulsifier safe cocktail (Ultima Gold, PerkinElmer, Waltham, MA, USA). The radioactivity in the cells was measured by liquid scintillation counting (MicroBeta^2 counter, PerkinElmer Waltham, MA, USA). Half of the maximum inhibitory concentration (IC50) values were calculated by nonlinear regression analysis (fitting the curve to log (concentration) vs. remaining normalized […]).

[6] = test system: Transport Type 2; assay: Concentration-dependent cellular uptake into BV2 cells, Eadie–Hofstee analysis, Transport Type 2; format: cell-based, mouse; conditions: 1–200 µM, 30 min, mean ± SD, n = 3
Procedure: as §1, §2

[7] = biological target: T1, LAT1; assay: Cellular uptake of compounds in the presence of LAT1-inhibitor (KMH-233); format: cell-based; conditions: 100 µM compound, 100 µM KMH-233, 30 min, BV2
Procedure: The competitive uptake in the presence of LAT1-inhibitor (KMH-233) was carried out as described above with HBSS buffer solution containing 100 µM of the studied compounds. The cells were pre-incubated with 100 µM LAT1-inhibitor for 10 min and the incubation mixture was removed before adding the studied compound and LAT1-inhibitor on the cells. The competitive uptake (30 min) with the inhibitor was then carried out as the normal uptake described above. The amounts of studied compounds were analyzed by the LC-MS method and calculated from the spiked standard curve and normalized with the protein concentrations.

[8] = biological target: T1, LAT1; assay: Inhibition type of [14C]-L-Leu uptake (Hanes-Woolf plots) in BV2 cells; format: cell-based; conditions: for Vmax of [14C]-L-Leu uptake: 0.010–0.20 µM [14C]-L-Leu in the presence of the compound at its IC50, mean ± SD, n = 3–4; for Vmax of [14C]-L-Leu uptake / Inhibition Type: BV2; for Inhibition Type: of [14C]-L-Leu uptake, concluded from Km and Vmax
Procedure: as §4
To evaluate the inhibition type of studied compounds, the BV2 cells were incubated with 0.010–0.20 μM [^14C]-L-leucine together with the studied compound. The concentration of compounds was selected according to the compound-specific IC50 values. The experiment was then carried out as described for the [^14C]-L-leucine uptake above and the radioactivity was measured by liquid scintillation counting. Hanes-Woolf plots were created by setting the ratio of initial substrate concentration to the reaction velocity ([S]/v) against [^14C]-L-leucine concentration (µM). The linear regression was used to calculate Km value (negative value of x-intercept) and Vmax value (1/slope) for [^14C]-L-leucine.

[9] = test system: LAT1; assay: Quantitative expression of LAT1 on the BV2 plasma membrane (LC-MS proteomics); format: cell-based, mouse; conditions: BV2 cells incubated 24 h; normalized to Na+/K+ATPase; compared to untreated control
Procedure: The protein expression levels of LAT1, in the plasma membrane fractions of BV2 cells were quantified using multiplexed MRM analysis according to the protocol described by Uchida et al.. First, the crude membrane fractions were isolated from three distinct sets of cell culture plates using Membrane Protein Extraction Kit (BioVision Incorporated, Milpitas, CA, USA) according to the manufacturer’s instructions. The protein content for each fraction was measured by Bio-Rad Protein Assay, based on the Bradford dye-binding method (EnVision, Perkin Elmer, Inc., Waltham, MA, USA). A total amount of 50 µg protein from each fraction was solubilized/denatured in 7 M guanidine hydrochloride, 0.5 M Tris-HCl and 10 mM EDTA-Na. The proteins were then reduced by dithiothreitol (1:50, w/w) and S-carboxymethylated by iodoacetamide (1:20, w/w). The alkylated proteins were precipitated by methanol/chloroform/water (4:1:3) and centrifuged at 18,000× g for 5 min at 4 °C. The pellet was resuspended in 6 M urea and mixed for 10 min at room temperature before the dilution with 0.1 M Tris-HCl (pH 8.5) to a final concentration of 1.2 M urea, and dissolved completely by intermittent sonication (Branson 3510, Danbury, CT, USA). The dissolved proteins were first digested with LysC (1/100, w/w) and 0.05% ProteaseMax (Promega Biotech AB, Nacka, Sweden) for 3 h at room temperature. Then, the samples were spiked with 10 µL (30 fmol) of the labelled peptides for absolute quantification (JPT Peptide Technologies GmbH, Berlin, Germany) (Table S2). The samples were incubated with (1/100, w/w) TPCK-Trypsin (Promega Biotech AB, Nacka, Sweden) for 18 h at 37 °C. The tryptic digestion was then quenched by adding 40 µL of 5% formic acid. The samples were then centrifuged at 18,000× g for 5 min at 4 °C, and the supernatants were transferred to vials for analysis.
The digested peptides were analyzed using an ultra-performance liquid chromatography system coupled with a triple quadrupole mass spectrometer with a heated electrospray ionization source in the positive mode (UPLC 1290 and MSD 6495, Agilent Technologies, Santa Clara, CA, USA). A total amount of 20 µL of the digested peptides (10 µg) was separated using AdvanceBio Peptide Map 2.1 × 250 mm, 2.7 μm column (Agilent Technologies, Santa Clara, CA, USA) and LC eluents of 0.1% formic acid in water (A) and acetonitrile (B). The peptides were eluted following a constant flow rate of 0.3 mL/min and a gradient of 2–7% B for 2 min, followed by 7–30% B for 48 min, 30–45% B for 3 min, and 45–80% B for 2.5 min before re-equilibrating the column again for 4.5 min. LAT1 was quantified based on the ratio between the light and heavy standard peptides, as described previously (Table S2). Data was acquired using Agilent MassHunter Workstation Acquisition (Agilent Technologies, Data Acquisition for Triple Quadrupole, version B.03.01) and processed by using Skyline software (version 20.1). The results were normalized to a housekeeping protein Na+/K+ATPase and expressed as fmol/µg of the total amount of protein in the samples.

[10] = 100 µM compound, 1–60 min, mean ± SD, n = 3
[11] = probe [3H]-L-Kynu, n = 3–4, read-out: IC50 of [3H]-L-Kynu uptake
[12] = probe [3H]-L-Met, n = 3–4, read-out: IC50 of [3H]-L-Met uptake
[13] = probe [3H]-L-Trp, n = 3–4, read-out: IC50 of [3H]-L-Trp uptake

T1 sequence (Q9Z127 whole entry): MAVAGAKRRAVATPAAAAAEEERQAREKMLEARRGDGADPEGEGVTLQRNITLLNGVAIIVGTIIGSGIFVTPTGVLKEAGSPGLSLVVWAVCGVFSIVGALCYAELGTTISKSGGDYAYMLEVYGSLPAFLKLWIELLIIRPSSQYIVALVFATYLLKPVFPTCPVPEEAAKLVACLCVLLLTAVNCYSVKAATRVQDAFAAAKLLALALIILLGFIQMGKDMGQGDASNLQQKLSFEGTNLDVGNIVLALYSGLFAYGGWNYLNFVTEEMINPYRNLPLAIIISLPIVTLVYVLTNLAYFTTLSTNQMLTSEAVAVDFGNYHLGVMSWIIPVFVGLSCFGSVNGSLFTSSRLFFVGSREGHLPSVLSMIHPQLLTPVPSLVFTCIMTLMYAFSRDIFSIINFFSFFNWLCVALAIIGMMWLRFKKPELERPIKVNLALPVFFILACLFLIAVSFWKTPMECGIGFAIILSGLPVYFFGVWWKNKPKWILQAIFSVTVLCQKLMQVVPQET
T1 sequence (P10852 whole entry partner): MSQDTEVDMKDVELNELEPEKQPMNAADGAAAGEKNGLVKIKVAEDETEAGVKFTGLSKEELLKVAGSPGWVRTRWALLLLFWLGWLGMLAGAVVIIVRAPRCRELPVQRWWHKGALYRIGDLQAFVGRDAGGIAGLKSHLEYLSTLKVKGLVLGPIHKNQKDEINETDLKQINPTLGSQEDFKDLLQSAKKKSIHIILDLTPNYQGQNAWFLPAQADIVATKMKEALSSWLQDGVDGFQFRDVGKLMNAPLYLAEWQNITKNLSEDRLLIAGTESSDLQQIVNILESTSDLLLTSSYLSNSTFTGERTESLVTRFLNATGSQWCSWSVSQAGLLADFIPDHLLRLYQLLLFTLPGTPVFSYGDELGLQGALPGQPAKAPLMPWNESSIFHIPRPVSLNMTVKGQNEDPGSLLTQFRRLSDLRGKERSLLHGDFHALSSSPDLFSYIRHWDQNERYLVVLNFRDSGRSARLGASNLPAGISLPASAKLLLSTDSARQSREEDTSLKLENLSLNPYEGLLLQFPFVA

SMILES | Km [1] [µM] | Transport Type 1 (LAT1) Vmax [1] [pmol/mg/min] | Effect on cellular uptake of L-Leu after pre-incubation [2] | Max. cellular uptake [3, 10] | half-life at 100 μM [4] [min] | IC50 [5, 11] [µM] | IC50 [5, 12] [µM] | IC50 [5, 13] [µM] | Cellular uptake in the presence of LAT1-inhibitor [7] | Vmax of [14C]-L-Leu uptake [8] [nmol/min/mg] | Inhibition Type [8] | LAT1 expression on the plasma membrane [9] | further results
CC(C(=O)Nc1ccc(CC(N)C(=O)O)cc1)c1cccc(C(=O)c2ccccc2)c1 (stereo not shown) [Compound 3] | 1.9 ± 0.3 | 3.7 ± 0.5 | decreased the amount of L-Leu inside the cells | 1.96 ± 0.14 nmol/mg of protein | 1.5 ± 0.67 | 11.9 ± 1.3 | 17.1 ± 1.9 | 39.2 ± 1.5 | inhibited significantly | 2.851 ± 0.035 | Non-competitive |  | Inhibition of LAT1-probe substrate uptake / LAT1 affinity ([5]; over all probe substrates): lower affinity and higher IC50 values; IC50 ([5]; probe [14C]-L-Leu, n = 3–4, read-out: IC50 of [14C]-L-Leu uptake): 26 ± 1.1 µM; Km [6]: 148 ± 41 µM; Transport Type 2 Vmax [6]: 49 ± 9 pmol/mg/min
CC(C)Cc1ccc([C@H](C)C(=O)Nc2cccc(C[C@H](N)C(=O)O)c2)cc1 [Compound 10] | 22 ± 6 | 205 ± 41 |  | 4.14 ± 0.31 nmol/mg of protein | < 1 | 7.7 ± 1.1 | 9.6 ± 1.6 | 43.4 ± 1.5 | only reductive trends were seen | 2.151 ± 0.066 | Mixed type |  | T½ of cellular uptake [3, 10]: 0.87 ± 0.55 min; LAT1-substrate or LAT1-binder ([3]; concluded from time-dependent uptake, 100 µM): LAT1-binders rather than substrates; IC50 ([8]; Table 2, compound concentration used in the inhibition type study, corresponding to IC50 of [14C]-L-Leu uptake): 13 µM
NC(=O)CC[C@H](N)C(=O)O [L-glutamine, reference compound] |  |  | decreased the amount of L-Leu inside the cells |  |  |  |  |  |  |  |  |  | 
C[C@@H]1C[C@H]2[C@@H]3CCC4=CC(=O)C=C[C@]4(C)[C@@]3(F)[C@@H](O)C[C@]2(C)[C@@]1(O)C(=O)CO [dexamethasone, reference compound] |  |  |  |  |  |  |  |  |  |  |  | did not have any effect on LAT1 expression | 
CCC1(c2ccccc2)C(=O)NC(=O)NC1=O [phenobarbital, reference compound] |  |  |  |  |  |  |  |  |  |  |  | did not have any effect on LAT1 expression | 
